Converted amounts (≈) assume the structure as drawn. The source made the active and inactive calls. No cut-off for these calls is given here.
What was measured:
Homo sapiens [1] = species on record: Homo sapiens; assay: Stability in human liver S9 fraction; assay type: ADME
[2] = molecular target: D(2) dopamine receptor (Homo sapiens) (UniProt P14416); assay: Inhibition of human D2S receptor at 10 uM
[3] = molecular target: Platelet-activating factor receptor (Homo sapiens) (UniProt P25105); assay: Inhibition of human PAF receptor at 10 uM
[4] = molecular target: Prostaglandin D2 receptor 2 (Mus musculus, UniProt Q9Z2J6); assay: Inhibition of mouse CRTH2 receptor
[5] = molecular target: Opioid receptors; mu/kappa/delta (Homo sapiens) (UniProt P41145+P41143+P35372); assay: Inhibition of opiate receptor at 10 uM; assay type: protein assay
[6] = molecular target: T1, Glutamate [NMDA] receptor (Homo sapiens) (UniProt Q05586+Q12879+Q13224+O15399+O60391+Q14957+Q8TCU5); assay: Inhibition of human PCP receptor at 10 uM; assay type: protein-complex assay
[7] = molecular target: Sigma non-opioid intracellular receptor 1 (Homo sapiens) (UniProt Q99720); assay: Inhibition of sigma receptor at 10 uM
[8] = molecular target: Melanin-concentrating hormone receptor 1 (Homo sapiens) (UniProt Q99705); assay: Inhibition of human MCH1 receptor at 10 uM
[9] = molecular target: Prostaglandin G/H synthase 1 (Homo sapiens) (UniProt P23219); assay: Inhibition of COX1 at 10 uM
Mus musculus [10] = assay: Inhibition of peribronchial eosinophilia in BALB/c mouse at 5 mg/kg, po relative to control; assay type: functional, organism-based; parameters: dose 5 mg/kg
[11] = molecular target: Substance-P receptor (Homo sapiens) (UniProt P25103); assay: Inhibition of human NK1 receptor at 10 uM
[12] = molecular target: T1, Glutamate [NMDA] receptor (Homo sapiens); assay: Inhibition of human NMDA receptor at 10 uM; assay type: protein-complex assay
[13] = molecular target: Type-2 angiotensin II receptor (Homo sapiens) (UniProt P50052); assay: Inhibition of human AT2 receptor at 10 uM
[14] = molecular target: Vasopressin V1a receptor (Homo sapiens) (UniProt P37288); assay: Inhibition of human V1a receptor at 10 uM
[15] = molecular target: Type-1 angiotensin II receptor (Homo sapiens) (UniProt P30556); assay: Inhibition of AT1
[16] = molecular target: Phospholipase A2 (Homo sapiens) (UniProt P04054); assay: Inhibition of PLA2 at 10 uM
[17] = molecular target: Sodium-dependent noradrenaline transporter (Homo sapiens) (UniProt P23975); assay: Inhibition of human NE transporter at 10 uM
[18] = molecular target: Muscarinic acetylcholine receptor (Homo sapiens) (UniProt P20309+P08173+P11229+P08172+P08912); assay: Inhibition of human M receptor at 10 uM; assay type: protein assay
[19] = molecular target: Type-2 angiotensin II receptor (Homo sapiens) (UniProt P50052); assay: Inhibition of AT2
[20] = molecular target: Sodium-dependent dopamine transporter (Homo sapiens) (UniProt Q01959); assay: Inhibition of human DA transporter at 10 uM
[21] = molecular target: Melanocortin receptor 4 (Homo sapiens) (UniProt P32245); assay: Inhibition of human MC4 receptor at 10 uM
[22] = molecular target: C5a anaphylatoxin chemotactic receptor 1 (Homo sapiens) (UniProt P21730); assay: Inhibition of human C5a receptor at 10 uM
[23] = molecular target: Cholecystokinin receptor type A (Homo sapiens) (UniProt P32238); assay: Inhibition of human CCKA receptor at 10 uM
[24] = molecular target: Adrenergic receptor alpha-2 (Homo sapiens) (UniProt P08913+P18825+P18089); assay: Inhibition of alpha-2 receptor at 10 uM; assay type: protein assay
[25] = Aqueous solubility at pH 1; assay type: physicochemical; conditions: buffer
[26] = Permeability from basolateral to apical side of Caco-2 cells; assay type: ADME, cell-based; conditions: human, read-out: permeability
Homo sapiens [27] = species on record: Homo sapiens; assay: Inhibition of human Y receptor at 10 uM
[28] = molecular target: T2, Prostaglandin D2 receptor 2 (Homo sapiens, UniProt Q9Y5Y4); assay: Displacement of [3H]PGD2 from human CRTH2 receptor expressed in HEK293 cells; assay type: cell-based
T2 sequence (Q9Y5Y4 whole entry): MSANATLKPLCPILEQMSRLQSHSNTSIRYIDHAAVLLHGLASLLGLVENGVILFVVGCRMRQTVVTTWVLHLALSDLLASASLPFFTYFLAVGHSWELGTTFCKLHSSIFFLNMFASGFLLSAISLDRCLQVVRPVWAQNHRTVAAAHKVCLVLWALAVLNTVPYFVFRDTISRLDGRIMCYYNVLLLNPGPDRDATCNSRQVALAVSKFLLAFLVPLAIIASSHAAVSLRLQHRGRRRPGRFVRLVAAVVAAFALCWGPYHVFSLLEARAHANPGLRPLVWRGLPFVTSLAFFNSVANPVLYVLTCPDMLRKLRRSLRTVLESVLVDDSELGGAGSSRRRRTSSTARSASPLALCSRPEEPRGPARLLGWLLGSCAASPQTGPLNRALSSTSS

[29] = molecular target: D(1A) dopamine receptor (Homo sapiens) (UniProt P21728); assay: Inhibition of human D1 receptor at 10 uM
[30] = molecular target: Histamine H1 receptor (Homo sapiens) (UniProt P35367); assay: Inhibition of human H1 receptor at 10 uM
[31] = molecular target: fMet-Leu-Phe receptor (Homo sapiens) (UniProt P21462); assay: Inhibition of human fMLP receptor at 10 uM
[32] = Inhibition of neuronal nicotinic receptor at 10 uM
[33] = molecular target: Type-1 angiotensin II receptor (Homo sapiens) (UniProt P30556); assay: Inhibition of human AT1 receptor at 10 uM
[34] = molecular target: T2, Prostaglandin D2 receptor 2; assay: Antagonist activity against CRTH2 receptor measured as inhibition of PGD2-induced beta-arrestin translocation in HEK293 cells by BRET assay; assay type: functional, cell-based
Mus musculus [35] = assay: Inhibition of peribronchial eosinophilia in BALB/c mouse at 100 mg/kg, po relative to control; assay type: functional
[36] = molecular target: Serotonin (5-HT) receptor (Homo sapiens) (UniProt P30939+P41595+Q13639+P28222+P46098+P08908+P28221+P28223+P28335+P28566+P34969+P50406+P47898+A5X5Y0+O95264+Q70Z44+Q8WXA8); assay: Inhibition of 5-HT receptor at 10 uM; assay type: protein assay
[37] = molecular target: Chemerin-like receptor 1 (Homo sapiens) (UniProt Q99788); assay: Inhibition of ChemR23 receptor at 10 uM
[38] = Distribution coefficient, log D at pH 7.4; assay type: physicochemical; conditions: octanol/water
[39] = molecular target: Gastric inhibitory polypeptide receptor (Homo sapiens) (UniProt P48546); assay: Inhibition of GIP receptor at 10 uM
[40] = Aqueous solubility in PBS at pH 7.4; assay type: physicochemical
[41] = molecular target: Polyunsaturated fatty acid lipoxygenase ALOX15 (Homo sapiens) (UniProt P16050); assay: Inhibition of 15-LO at 10 uM
[42] = Half life in rat; assay type: ADME, organism-based; conditions: in vivo
Rattus norvegicus = species on record: Rattus norvegicus; assay: Stability in rat liver S9 fraction; assay type: ADME
Mus musculus [43] = assay: Inhibition of goblet cell hyperplasia in BALB/c mouse at 5 mg/kg, po relative to control; assay type: functional, organism-based; parameters: dose 5 mg/kg
[44] = molecular target: Glucocorticoid receptor (Homo sapiens) (UniProt P04150); assay: Inhibition of human glucocorticoid receptor at 10 uM

Type-2 angiotensin II receptor (Homo sapiens), sequence (P50052 whole entry): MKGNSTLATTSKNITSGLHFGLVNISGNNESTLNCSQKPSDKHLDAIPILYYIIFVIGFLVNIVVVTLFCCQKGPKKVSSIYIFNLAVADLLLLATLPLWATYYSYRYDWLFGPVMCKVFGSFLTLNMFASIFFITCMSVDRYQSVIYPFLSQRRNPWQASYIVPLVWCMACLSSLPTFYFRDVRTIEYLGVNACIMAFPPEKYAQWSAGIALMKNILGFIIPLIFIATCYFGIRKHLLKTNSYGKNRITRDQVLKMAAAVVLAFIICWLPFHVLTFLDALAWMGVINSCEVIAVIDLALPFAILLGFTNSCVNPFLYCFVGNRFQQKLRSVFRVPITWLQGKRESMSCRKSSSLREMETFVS
Type-1 angiotensin II receptor (Homo sapiens), sequence (P30556 whole entry): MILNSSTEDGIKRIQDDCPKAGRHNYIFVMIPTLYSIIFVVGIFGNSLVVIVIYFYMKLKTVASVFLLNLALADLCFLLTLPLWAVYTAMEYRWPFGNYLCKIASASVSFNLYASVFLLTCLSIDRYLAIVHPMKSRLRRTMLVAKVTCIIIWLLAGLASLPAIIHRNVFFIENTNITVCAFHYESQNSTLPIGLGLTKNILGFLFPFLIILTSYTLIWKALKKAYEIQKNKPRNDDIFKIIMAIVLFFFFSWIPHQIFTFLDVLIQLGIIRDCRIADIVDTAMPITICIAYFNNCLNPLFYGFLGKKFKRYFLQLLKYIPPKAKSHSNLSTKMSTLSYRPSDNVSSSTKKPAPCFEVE
Gastric inhibitory polypeptide receptor (Homo sapiens), sequence (P48546 whole entry): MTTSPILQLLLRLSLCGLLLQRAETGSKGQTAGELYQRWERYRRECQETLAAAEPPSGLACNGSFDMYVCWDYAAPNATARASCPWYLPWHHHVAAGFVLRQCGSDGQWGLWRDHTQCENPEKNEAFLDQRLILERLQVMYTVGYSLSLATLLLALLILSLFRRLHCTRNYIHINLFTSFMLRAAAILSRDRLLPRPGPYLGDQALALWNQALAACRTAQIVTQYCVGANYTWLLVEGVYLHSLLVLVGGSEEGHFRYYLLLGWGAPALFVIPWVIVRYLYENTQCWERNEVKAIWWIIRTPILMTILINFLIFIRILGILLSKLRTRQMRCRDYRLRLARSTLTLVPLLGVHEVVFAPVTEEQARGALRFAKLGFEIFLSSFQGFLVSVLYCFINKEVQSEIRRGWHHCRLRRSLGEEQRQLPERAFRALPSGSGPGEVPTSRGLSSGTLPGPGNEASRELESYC
Opioid receptors; mu/kappa/delta (Homo sapiens), sequence (P35372 whole entry, looked up): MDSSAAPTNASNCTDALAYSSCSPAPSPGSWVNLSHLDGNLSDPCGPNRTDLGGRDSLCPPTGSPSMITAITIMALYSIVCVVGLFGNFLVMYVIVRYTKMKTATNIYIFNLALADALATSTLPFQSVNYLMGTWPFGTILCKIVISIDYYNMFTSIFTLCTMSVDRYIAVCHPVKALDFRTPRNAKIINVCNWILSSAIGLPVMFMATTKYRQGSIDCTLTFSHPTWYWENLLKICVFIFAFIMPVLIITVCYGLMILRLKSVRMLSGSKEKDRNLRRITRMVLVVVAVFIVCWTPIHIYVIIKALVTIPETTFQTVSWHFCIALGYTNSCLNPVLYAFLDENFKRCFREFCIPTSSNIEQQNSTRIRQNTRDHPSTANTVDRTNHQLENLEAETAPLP
Opioid receptors; mu/kappa/delta (Homo sapiens), sequence (P41143 whole entry, looked up): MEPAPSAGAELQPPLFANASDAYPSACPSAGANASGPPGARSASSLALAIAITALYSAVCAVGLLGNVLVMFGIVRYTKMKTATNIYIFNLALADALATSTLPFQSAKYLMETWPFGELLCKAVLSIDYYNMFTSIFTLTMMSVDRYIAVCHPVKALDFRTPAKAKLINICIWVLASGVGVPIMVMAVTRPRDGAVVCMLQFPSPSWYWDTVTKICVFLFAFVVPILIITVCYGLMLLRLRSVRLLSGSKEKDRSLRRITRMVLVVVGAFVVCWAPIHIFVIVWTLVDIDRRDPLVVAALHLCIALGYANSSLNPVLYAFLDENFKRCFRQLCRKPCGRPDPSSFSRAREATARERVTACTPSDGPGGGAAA
Opioid receptors; mu/kappa/delta (Homo sapiens), sequence (P41145 whole entry, looked up): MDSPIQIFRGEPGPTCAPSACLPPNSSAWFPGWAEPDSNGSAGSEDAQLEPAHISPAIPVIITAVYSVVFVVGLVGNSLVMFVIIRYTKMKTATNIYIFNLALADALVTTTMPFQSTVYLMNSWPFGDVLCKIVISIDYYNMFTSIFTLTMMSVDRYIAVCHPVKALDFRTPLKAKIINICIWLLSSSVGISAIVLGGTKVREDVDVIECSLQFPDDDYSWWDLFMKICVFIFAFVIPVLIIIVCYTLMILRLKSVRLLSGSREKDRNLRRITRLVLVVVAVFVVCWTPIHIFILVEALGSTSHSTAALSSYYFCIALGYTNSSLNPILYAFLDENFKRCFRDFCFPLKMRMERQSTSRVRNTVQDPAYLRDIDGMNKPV
Sigma non-opioid intracellular receptor 1 (Homo sapiens), sequence (Q99720 whole entry): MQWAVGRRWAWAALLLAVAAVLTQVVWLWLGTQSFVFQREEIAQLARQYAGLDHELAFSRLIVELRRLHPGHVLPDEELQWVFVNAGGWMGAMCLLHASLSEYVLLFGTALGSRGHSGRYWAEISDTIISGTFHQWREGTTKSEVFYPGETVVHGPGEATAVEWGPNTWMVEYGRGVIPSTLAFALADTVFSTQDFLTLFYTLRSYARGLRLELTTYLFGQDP
Phospholipase A2 (Homo sapiens), sequence (P04054 23-148 limits assumed): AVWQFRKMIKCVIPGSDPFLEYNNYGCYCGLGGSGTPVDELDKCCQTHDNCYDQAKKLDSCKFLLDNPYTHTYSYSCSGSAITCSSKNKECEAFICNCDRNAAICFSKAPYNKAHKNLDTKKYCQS
Sodium-dependent noradrenaline transporter (Homo sapiens), sequence (P23975 whole entry): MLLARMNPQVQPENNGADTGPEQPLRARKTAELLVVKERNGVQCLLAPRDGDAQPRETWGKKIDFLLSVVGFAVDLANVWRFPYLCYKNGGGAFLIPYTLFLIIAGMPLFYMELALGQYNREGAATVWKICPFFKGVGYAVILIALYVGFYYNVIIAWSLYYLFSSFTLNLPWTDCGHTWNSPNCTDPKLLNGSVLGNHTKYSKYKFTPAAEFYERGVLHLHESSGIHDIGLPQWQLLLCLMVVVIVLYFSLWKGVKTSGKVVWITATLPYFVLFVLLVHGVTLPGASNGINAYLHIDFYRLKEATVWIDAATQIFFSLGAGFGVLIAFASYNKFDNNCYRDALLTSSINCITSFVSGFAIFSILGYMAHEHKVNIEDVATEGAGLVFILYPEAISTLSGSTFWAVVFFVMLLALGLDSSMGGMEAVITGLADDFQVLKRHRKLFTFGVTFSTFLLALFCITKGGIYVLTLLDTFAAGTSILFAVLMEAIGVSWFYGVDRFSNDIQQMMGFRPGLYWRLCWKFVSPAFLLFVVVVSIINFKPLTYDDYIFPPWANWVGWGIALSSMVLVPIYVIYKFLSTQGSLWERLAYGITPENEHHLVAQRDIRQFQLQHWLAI
fMet-Leu-Phe receptor (Homo sapiens), sequence (P21462 whole entry): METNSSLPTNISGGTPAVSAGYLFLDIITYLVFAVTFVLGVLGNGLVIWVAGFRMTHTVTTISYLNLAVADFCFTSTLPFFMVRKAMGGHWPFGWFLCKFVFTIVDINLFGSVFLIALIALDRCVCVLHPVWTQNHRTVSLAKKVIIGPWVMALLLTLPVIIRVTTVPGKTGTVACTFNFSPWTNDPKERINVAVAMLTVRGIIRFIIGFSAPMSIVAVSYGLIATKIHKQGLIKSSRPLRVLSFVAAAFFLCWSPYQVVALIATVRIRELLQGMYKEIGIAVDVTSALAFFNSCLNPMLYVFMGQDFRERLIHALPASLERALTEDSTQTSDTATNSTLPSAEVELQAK
Melanin-concentrating hormone receptor 1 (Homo sapiens), sequence (Q99705 whole entry): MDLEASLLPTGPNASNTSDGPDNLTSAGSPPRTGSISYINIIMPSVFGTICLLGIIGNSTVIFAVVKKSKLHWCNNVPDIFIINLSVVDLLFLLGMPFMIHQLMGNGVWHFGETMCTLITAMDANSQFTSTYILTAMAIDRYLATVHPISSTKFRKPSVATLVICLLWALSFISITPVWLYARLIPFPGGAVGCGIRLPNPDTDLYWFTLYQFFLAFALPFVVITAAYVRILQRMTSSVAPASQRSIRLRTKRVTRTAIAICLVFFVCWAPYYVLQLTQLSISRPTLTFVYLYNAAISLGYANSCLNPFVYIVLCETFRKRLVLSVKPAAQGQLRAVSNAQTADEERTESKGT
Polyunsaturated fatty acid lipoxygenase ALOX15 (Homo sapiens), sequence (P16050 whole entry): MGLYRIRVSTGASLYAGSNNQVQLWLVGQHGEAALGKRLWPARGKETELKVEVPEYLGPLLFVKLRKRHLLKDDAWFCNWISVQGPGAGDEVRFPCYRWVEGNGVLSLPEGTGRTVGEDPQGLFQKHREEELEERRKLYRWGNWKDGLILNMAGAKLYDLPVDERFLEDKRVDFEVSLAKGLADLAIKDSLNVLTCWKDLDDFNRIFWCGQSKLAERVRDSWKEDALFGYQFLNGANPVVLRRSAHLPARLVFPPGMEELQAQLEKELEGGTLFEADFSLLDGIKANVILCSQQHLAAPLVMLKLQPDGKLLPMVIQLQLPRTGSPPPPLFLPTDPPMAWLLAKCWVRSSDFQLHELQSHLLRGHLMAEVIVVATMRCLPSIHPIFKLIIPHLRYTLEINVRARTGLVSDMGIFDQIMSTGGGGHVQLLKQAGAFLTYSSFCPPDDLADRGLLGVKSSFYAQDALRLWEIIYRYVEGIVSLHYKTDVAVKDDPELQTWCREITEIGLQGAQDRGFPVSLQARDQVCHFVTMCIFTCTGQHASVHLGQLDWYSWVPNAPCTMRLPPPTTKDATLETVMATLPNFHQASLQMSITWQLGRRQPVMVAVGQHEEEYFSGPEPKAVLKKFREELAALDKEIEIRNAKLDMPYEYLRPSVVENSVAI

With `O=C(O)COc1ccc(Br)cc1C(=O)c1cnn(-c2ccccc2)c1` as the compound, how does the Stability (Homo sapiens [1]) read?
Its Stability is 93%.

And the inhibition [2]?
The inhibition was < 30%.

And the inhibition [3]?
The inhibition was < 30%.

And the IC50 [4]?
The IC50 was 3.2 nM.

And the inhibition [5]?
The inhibition was < 30%.

What about the inhibition [6] of the same compound?
Its inhibition is < 30%.

What about the inhibition [7] of the same compound?
The inhibition was < 30%.

And the inhibition [8]?
Its inhibition is < 30%.

And the inhibition [9]?
Its inhibition is < 20%.

And the Activity (Mus musculus [10])?
The Activity was “Active”.

And the inhibition [11]?
Its inhibition is < 30%.

What about the inhibition [12] of the same compound?
Its inhibition is < 30%.

What about the inhibition [13] of the same compound?
Its inhibition is < 30%.

What about the inhibition [14] of the same compound?
Its inhibition is < 30%.

And the Activity [15]?
Its Activity is “inactive”.

And the inhibition [16]?
The inhibition was < 20%.

What about the inhibition [17] of the same compound?
Its inhibition is < 30%.

And the inhibition [18]?
Its inhibition is < 30%.

What about the Activity [19] of the same compound?
The Activity was “inactive”.

What about the inhibition [20] of the same compound?
The inhibition was < 30%.

What about the inhibition [21] of the same compound?
The inhibition was < 30%.

What about the inhibition [22] of the same compound?
The inhibition was < 30%.

What about the inhibition [23] of the same compound?
The inhibition was < 30%.

What about the inhibition [24] of the same compound?
Its inhibition is < 30%.

What about the solubility [25] of the same compound?
The solubility was 80 µM (≈ 32.1 µg/mL).

And the Papp B→A [26]?
Its Papp B→A is 13 ×10⁻⁶ cm/s.

What about the inhibition (Homo sapiens [27]) of the same compound?
The inhibition was < 30%.

And the IC50 [28]?
Its IC50 is 1.5 nM.

And the inhibition [29]?
The inhibition was < 30%.

What about the inhibition [30] of the same compound?
The inhibition was < 30%.

And the inhibition [31]?
Its inhibition is < 30%.

What about the inhibition [32] of the same compound?
Its inhibition is < 30%.

What about the inhibition [33] of the same compound?
The inhibition was < 30%.

What about the IC50 [34] of the same compound?
The IC50 was 24 nM.

What about the inhibition in vivo at 100 mg/kg (Mus musculus [35]) of the same compound?
The inhibition in vivo at 100 mg/kg was 55%.

What about the inhibition [36] of the same compound?
Its inhibition is < 30%.

And the inhibition [37]?
The inhibition was < 30%.

And the logD [38]?
Its logD is 0.64.

What about the inhibition [39] of the same compound?
Its inhibition is < 30%.

What about the solubility [40] of the same compound?
The solubility was 200 µM (≈ 80.2 µg/mL).

And the inhibition [41]?
The inhibition was < 20%.

And the half-life [42]?
Its half-life is 2.7 h.

And the Stability (Rattus norvegicus)?
Its Stability is 92%.

And the Activity (Mus musculus [43])?
The Activity was “Active”.

And the inhibition [44]?
The inhibition was < 30%.
